{"source": "patent US9284333B2", "about": "“Fused pyrroledicarboxamides and their use as pharmaceuticals” (SANOFI, priority 2012, dated 2016)"}
{"molecular_target": "Human TASK-1 channels (Homo sapiens (Human), UniProt O14649)", "sequence (O14649 whole entry)": "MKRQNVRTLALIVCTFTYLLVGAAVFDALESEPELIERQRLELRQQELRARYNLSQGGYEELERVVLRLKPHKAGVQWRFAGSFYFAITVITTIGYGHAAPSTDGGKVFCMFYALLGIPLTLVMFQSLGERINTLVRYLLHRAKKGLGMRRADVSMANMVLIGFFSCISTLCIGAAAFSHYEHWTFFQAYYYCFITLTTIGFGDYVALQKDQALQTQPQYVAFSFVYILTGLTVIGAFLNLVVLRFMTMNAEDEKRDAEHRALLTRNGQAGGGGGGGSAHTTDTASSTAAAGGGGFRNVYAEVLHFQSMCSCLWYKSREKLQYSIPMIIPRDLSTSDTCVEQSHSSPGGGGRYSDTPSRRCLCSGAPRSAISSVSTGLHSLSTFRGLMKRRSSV", "assay": "Determination of the activity on the TASK-1 channel in Xenopus oocytes (two-microelectrode voltage clamp)", "format": "cell-based", "conditions": "compound concentration 5 μM", "description": "(§1) Determination of the activity on the TASK-1 channel in Xenopus oocytes\n(§2) Human TASK-1 channels were expressed in Xenopus oocytes. For this purpose, oocytes were isolated from Xenopus laevis and defoliculated. Subsequently, TASK-1-encoding RNA synthesized in vitro was injected into the oocytes. After two days of TASK-1 protein expression, TASK-1 currents were measured by two-microelectrode voltage clamp. Data were acquired and analyzed using a TEC-10cx amplifier (NPI Electronic, Tamm, Germany) connected to an ITC-16 interface (Instrutech Corp., Long Island, USA) and Pulse software (HEKA Elektronik, Lambrecht, Germany). Oocytes were clamped to −90 mV and TASK-1 mediated currents were measured during 500 ms voltage pulses to 40 mV. Oocytes were continuously superfused with ND96 buffer containing 96 mM sodium chloride, 2 mM potassium chloride, 1.8 mM calcium chloride, 1 mM magnesium chloride, 5 mM 4-(2-hydroxyethyl)-piperazine-1-ethanesulfonic acid (HEPES; pH adjusted to 7.4 with sodium hydroxide). All experiments were performed at room temperature. Test compounds were consecutively added to the bath solution at rising concentrations. Compound effects were calculated as the percentage inhibition of TASK-1 control current before compound addition. IC50 values were obtained by fitting the data to the general dose-response equation.", "units": {"inhibition at 5 µM": "%"}}
{"smiles": "C[C@@H](NC(=O)c1cc(C(=O)N2CCC[C@@H]2C)n2c1COCC2)c1ccc(Cl)cc1", "note": "[16as, 6-((S)-2-Methyl-pyrrolidine-1-carbonyl)-3,4-dihydro-1H-pyrrolo[2,1-c][1,4]oxazine-8-carboxylic acid [(R)-1-(4-chloro-phenyl)-ethyl]-amide]", "inhibition at 5 µM": 87}
{"smiles": "C[C@H]1CCCN1C(=O)c1cc(C(=O)NCc2c(F)cc(F)cc2F)c2n1CCOC2", "note": "[16af, 6-((S)-2-Methyl-pyrrolidine-1-carbonyl)-3,4-dihydro-1H-pyrrolo[2,1-c][1,4]oxazine-8-carboxylic acid 2,4,6-trifluoro-benzylamide]", "inhibition at 5 µM": 78}
{"smiles": "C[C@H]1CCCN1C(=O)c1cc(C(=O)NCc2c(Cl)cccc2Cl)c2n1CCOC2", "note": "[16ag, 6-((S)-2-Methyl-pyrrolidine-1-carbonyl)-3,4-dihydro-1H-pyrrolo[2,1-c][1,4]oxazine-8-carboxylic acid 2,6-dichloro-benzylamide]", "inhibition at 5 µM": 84}
{"molecular_target": "Human TASK-1 channels (Homo sapiens (Human), UniProt O14649)", "assay": "Determination of the activity on the TASK-1 channel in Xenopus oocytes (two-microelectrode voltage clamp)", "format": "cell-based", "conditions": "human TASK-1 expressed in Xenopus oocytes, room temperature; read-out: IC50 value for TASK-1 inhibition", "description": "as §1, §2", "units": {"IC50": "nM"}}
{"smiles": "CC[C@@H](NC(=O)c1cc(C(=O)N2CCC[C@@H]2C)n2c1COCC2)c1cccc(O)c1", "note": "[16ab, 6-((S)-2-Methyl-pyrrolidine-1-carbonyl)-3,4-dihydro-1H-pyrrolo[2,1-c][1,4]oxazine-8-carboxylic acid [(R)-1-(3-hydroxy-phenyl)-propyl]-amide]", "IC50": 2600}
{"smiles": "CC[C@@H](NC(=O)c1cc(C(=O)N(C)Cc2ncccn2)n2c1COCC2)c1ccccc1", "note": "[16jc, 3,4-Dihydro-1H-pyrrolo[2,1-c][1,4]oxazine-6,8-dicarboxylic acid 6-(methyl-pyrimidin-2-ylmethyl-amide) 8-[((R)-1-phenyl-propyl)-amide]]", "IC50": 2700}
{"smiles": "CC[C@@H](NC(=O)c1cc(C(=O)NCc2cccc(C(=O)OC)c2)n2c1COCC2)c1ccccc1", "note": "[16iq, 3-({[8-((R)-1-Phenyl-propylcarbamoyl)-3,4-dihydro-1H-pyrrolo[2,1-c][1,4]oxazine-6-carbonyl]-amino}-methyl)-benzoic acid methyl ester]", "IC50": 330}
{"smiles": "CC[C@@H](NC(=O)c1cc(C(=O)N[C@H](C)c2ccc(F)cc2)n2c1COCC2)c1ccc(OC)nc1", "note": "[16du]", "IC50": 220}
{"smiles": "C[C@H]1CCCN1C(=O)c1cc(C(=O)NCc2c(F)cccc2F)c2n1CCOC2", "note": "[16y, 6-((S)-2-Methyl-pyrrolidine-1-carbonyl)-3,4-dihydro-1H-pyrrolo[2,1-c][1,4]oxazine-8-carboxylic acid 2,6-difluoro-benzylamide]", "IC50": 1000}
{"smiles": "CC[C@@H](NC(=O)c1cc(C(=O)NCCOC)n2c1COCC2)c1ccccc1", "note": "[16gh, 3,4-Dihydro-1H-pyrrolo[2,1-c][1,4]oxazine-6,8-dicarboxylic acid 6-[(2-methoxy-ethyl)-amide] 8-[((R)-1-phenyl-propyl)-amide]]", "IC50": 2200}
{"smiles": "CC[C@@H](NC(=O)c1cc(C(=O)N2CCC[C@@H]2C)n2c1COCC2)c1cnc(C(F)(F)F)c(OC)c1", "note": "[16cw, 6-((S)-2-Methyl-pyrrolidine-1-carbonyl)-3,4-dihydro-1H-pyrrolo[2,1-c][1,4]oxazine-8-carboxylic acid [(R)-1-(5-methoxy-6-trifluoromethyl-pyridin-3-yl)-propyl]-amide]", "IC50": 2400}
{"smiles": "CC[C@@H](NC(=O)c1cc(C(=O)N(C)CCOC)n2c1CCCC2)c1ccccc1", "note": "[16mh, 5,6,7,8-Tetrahydro-indolizine-1,3-dicarboxylic acid 3-[(2-methoxy-ethyl)-methyl-amide] 1-[((R)-1-phenyl-propyl)-amide]]", "IC50": 160}
{"smiles": "CC[C@@H](NC(=O)c1cc(C(=O)N2CCC[C@@H]2C)n2c1COCC2)c1ncccc1Cl", "note": "[16pf]", "IC50": 99}
{"smiles": "CC[C@@H](NC(=O)c1cc(C(=O)N2CCC[C@@H]2C)n2c1COCC2)c1cc(F)c(C#N)c(F)c1", "note": "[16ca, 6-((S)-2-Methyl-pyrrolidine-1-carbonyl)-3,4-dihydro-1H-pyrrolo[2,1-c][1,4]oxazine-8-carboxylic acid [(R)-1-(4-cyano-3,5-difluoro-phenyl)-propyl]-amide]", "IC50": 340}
{"smiles": "CC[C@@H](NC(=O)c1cc(C(=O)N2CCC[C@@H]2C)n2c1COCC2)c1cccnc1C(F)(F)F", "note": "[16r, 6-((S)-2-Methyl-pyrrolidine-1-carbonyl)-3,4-dihydro-1H-pyrrolo[2,1-c][1,4]oxazine-8-carboxylic acid [(R)-1-(2-trifluoromethyl-pyridin-3-yl)-propyl]-amide]", "IC50": 1900}
{"smiles": "CC[C@@H](NC(=O)c1cc(C(=O)Nc2nc(C)c(C)s2)c2n1CCOC2)c1ccccc1", "note": "[16ju, 3,4-Dihydro-1H-pyrrolo[2,1-c][1,4]oxazine-6,8-dicarboxylic acid 8-[(4,5-dimethyl-thiazol-2-yl)-amide] 6-[((R)-1-phenyl-propyl)-amide]]", "IC50": 940}
{"smiles": "CC[C@@H](NC(=O)c1cc(C(=O)N(CC)CC)n2c1COCC2)c1ccccc1", "note": "[16gn, 3,4-Dihydro-1H-pyrrolo[2,1-c][1,4]oxazine-6,8-dicarboxylic acid 6-diethylamide 8-[((R)-1-phenyl-propyl)-amide]]", "IC50": 250}
{"smiles": "CC[C@@H](NC(=O)c1cc(C(=O)N2CCC[C@@H]2COC)n2c1COCC2)c1ccccc1", "note": "[16eo, 6-((R)-2-Methoxymethyl-pyrrolidine-1-carbonyl)-3,4-dihydro-1H-pyrrolo[2,1-c][1,4]oxazine-8-carboxylic acid ((R)-1-phenyl-propyl)-amide]", "IC50": 380}
{"smiles": "CC[C@@H](NC(=O)c1cc(C(=O)NCc2ncn[nH]2)n2c1COCC2)c1ccccc1", "note": "[16ii, 3,4-Dihydro-1H-pyrrolo[2,1-c][1,4]oxazine-6,8-dicarboxylic acid 8-[((R)-1-phenyl-propyl)-amide] 6-[(2H-[1,2,4]triazol-3-ylmethyl)-amide]]", "IC50": 650}
{"smiles": "CC[C@@H](NC(=O)c1cc(C(=O)N[C@@H]2CCc3ccccc32)n2c1COCC2)c1ccccc1", "note": "[16gp, 3,4-Dihydro-1H-pyrrolo[2,1-c][1,4]oxazine-6,8-dicarboxylic acid 6-(R)-indan-1-ylamide 8-[((R)-1-phenyl-propyl)-amide]]", "IC50": 570}
{"smiles": "CCOC(=O)[C@H]1CCCN1C(=O)c1cc(C(=O)N[C@H](CC)c2ccccc2)c2n1CCOC2", "note": "[16ff]", "IC50": 540}
{"smiles": "CC[C@@H](NC(=O)c1cc(C(=O)NCc2nccs2)n2c1COCC2)c1ccccc1", "note": "[16il, 3,4-Dihydro-1H-pyrrolo[2,1-c][1,4]oxazine-6,8-dicarboxylic acid 8-[((R)-1-phenyl-propyl)-amide] 6-[(thiazol-2-ylmethyl)-amide]]", "IC50": 170}
{"smiles": "CC[C@@H](NC(=O)c1cc(C(=O)N2CCC[C@@H]2C)n2c1COCC2)c1ccc(Cl)nc1", "note": "[16ar, 6-((S)-2-Methyl-pyrrolidine-1-carbonyl)-3,4-dihydro-1H-pyrrolo[2,1-c][1,4]oxazine-8-carboxylic acid [(R)-1-(6-chloro-pyridin-3-yl)-propyl]-amide]", "IC50": 440}
{"smiles": "CC[C@@H](NC(=O)c1cc(C(=O)NCC2CCOCC2)n2c1CCCC2)c1ccccc1", "note": "[16mq, 5,6,7,8-Tetrahydro-indolizine-1,3-dicarboxylic acid 1-[((R)-1-phenyl-propyl)-amide] 3-[(tetrahydro-pyran-4-ylmethyl)-amide]]", "IC50": 310}
{"smiles": "CC[C@@H](NC(=O)c1cc(C(=O)NCc2ccc(F)cc2F)c2n1CCOC2)c1cnccn1", "note": "[16ns, 3,4-Dihydro-1H-pyrrolo[2,1-c][1,4]oxazine-6,8-dicarboxylic acid 8-(2,4-difluoro-benzylamide) 6-[((R)-1-pyrazin-2-yl-propyl)-amide]]", "IC50": 3100}
{"smiles": "CC[C@@H](NC(=O)c1cc(C(=O)N2CCCC2C(C)(C)C)n2c1COCC2)c1ccccc1", "note": "(stereo partly drawn) [16ex, 6-(2-tert-Butyl-pyrrolidine-1-carbonyl)-3,4-dihydro-1H-pyrrolo[2,1-c][1,4]oxazine-8-carboxylic acid ((R)-1-phenyl-propyl)-amide]", "IC50": 180}
{"smiles": "CC[C@@H](NC(=O)c1cc(C(=O)N2CCC[C@@H]2C)n2c1COCC2)c1cnc(C#N)c(Cl)c1", "note": "[16rf, 6-((S)-2-Methyl-pyrrolidine-1-carbonyl)-3,4-dihydro-1H-pyrrolo[2,1-c][1,4]oxazine-8-carboxylic acid [(R)-1-(5-chloro-6-cyano-pyridin-3-yl)-propyl]-amide]", "IC50": 1000}
{"smiles": "CC[C@@H](NC(=O)c1cc(C(=O)N2CCC[C@@H]2C)n2c1COCC2)c1ccc(F)c(Cl)c1", "note": "[16cg, 6-((S)-2-Methyl-pyrrolidine-1-carbonyl)-3,4-dihydro-1H-pyrrolo[2,1-c][1,4]oxazine-8-carboxylic acid [(R)-1-(3-chloro-4-fluoro-phenyl)-propyl]-amide]", "IC50": 15}
{"smiles": "CC[C@@H](NC(=O)c1cc(C(=O)N2CCC[C@@H]2C)n2c1COCC2)c1ccc(OC)nc1", "note": "[16ai, 6-((S)-2-Methyl-pyrrolidine-1-carbonyl)-3,4-dihydro-1H-pyrrolo[2,1-c][1,4]oxazine-8-carboxylic acid [(R)-1-(6-methoxy-pyridin-3-yl)-propyl]-amide]", "IC50": 1400}
{"smiles": "CC[C@@H](NC(=O)c1cc(C(=O)N2CCCC2C2CC2)n2c1COCC2)c1ccccc1", "note": "(stereo partly drawn) [16gb, 6-(2-Cyclopropyl-pyrrolidine-1-carbonyl)-3,4-dihydro-1H-pyrrolo[2,1-c][1,4]oxazine-8-carboxylic acid ((R)-1-phenyl-propyl)-amide]", "IC50": 450}
{"smiles": "CC[C@@H](NC(=O)c1cc(C(=O)N[C@H](C)c2ccc(F)cc2)n2c1COCC2)c1cnc(OC)cn1", "note": "[16dw, 3,4-Dihydro-1H-pyrrolo[2,1-c][1,4]oxazine-6,8-dicarboxylic acid 6-{[(R)-1-(4-fluoro-phenyl)-ethyl]-amide} 8-{[(R)-1-(5-methoxy-pyrazin-2-yl)-propyl]-amide}]", "IC50": 48}
